Reference: patent US6713493B2, “Use of nicergoline in the treatment of spasticity” (Aventis Pharma S.A., priority 1998, dated 2004)

What was measured:
[1] = system: spasticity in amyotrophic lateral sclerosis; conditions: riluzole sold as Rilutek for ALS; cited from earlier work
[2] = system: stiffness (spasticity) in patients suffering from ALS; test: Descriptive study on 9 ALS patients: stiffness self-assessed on a 100 mm visual analog scale (VAS) before and after nicergoline; type: in vivo, human (patients)
Experimental: A descriptive study on 9 patients suffering from ALS was carried out. The main criterion defined is the stiffness, measured using a visual analog scale (VAS), of 100 mm, or the individual rates by self-assessment the severity of the stiffness perceived. The patients receive 100 mg/day of riluzole and 15 mg IV of nicergoline on the first day and 30 mg IV on the next 4 days. The duration of infusion was more than 4 hours to avoid any risk of hypotension. The measurement was carried out before and after administration of nicergoline.

SMILES	Effect on spasticity (in words) [1]	Stiffness (VAS, 100 mm) after administration of nicergoline, mean±standard deviation ([2]; 9 ALS patients on riluzole 100 mg/day, nicergoline 15 mg IV day 1, 30 mg IV next 4 days, measured 4 days later (from 4 to 8 d), stiffness before administration 67.33±25) [mm]	Intra-individual difference in stiffness (VAS) before vs after nicergoline, mean±standard deviation ([2]; 9 ALS patients, same regimen, range −8 to +57, comparison at zero difference significant (t=2.809, p (2α)=0.0229)) [mm]	Effect on pyramidal spasticity of neurological diseases involving an attack of the pyramidal pathway (in words) ([2]; in particular spasticity during ALS)
Nc1nc2ccc(OC(F)(F)F)cc2s1 [Riluzole, 2-amino-6-trifluoro-methoxybenzothiazole]	no effect on the spasticity	–	–	–
CO[C@]12C[C@@H](COC(=O)c3cncc(Br)c3)CN(C)[C@@H]1Cc1cn(C)c3cccc2c13 [nicergoline, (8β)-10-methoxy-1,6-dimethylergoline-8-methanol-5-bromonicotinate]	–	48.11±19	19.22±20.5	reduces the pyramidal spasticity
